Assay results: article PMC4842970, “Bioactivity Focus of α-Cyano-4-hydroxycinnamic acid (CHCA) Leads to Effective Multifunctional Aldose Reductase Inhibitors” (Scientific Reports, 2016)

Columns and labels:
[1] = tested on: HEK293 cells; test: Cytotoxicity, MTT growth inhibition; assay type: cell-based, human; settings: 500 μM
Procedure: In another aspect, the toxicity was evaluated by the growth inhibition of 5f against human embryonic kidney 293 (HEK293) cells. It was shown that 5f was nontoxic to HEK293 cells even at high concentration of 500 μM (Supplementary B of Fig. S2).
HEK293 cells were purchased from Centre of Cells Resource, Shanghai Institute of Life Science, Chinese Academy of Sciences, P. R. China. HEK293 cells in the exponential phase were plated on a 96-well cell culture plate with 5 × 10^3 cells in each well supplemented with 100 U/ml of penicillin and 100 μg/ml of streptomycin, which were cultured in a humidified atmosphere of 95% and 5% CO2 at 37 °C for 24 h. The cells were adherent. […] 6 wells were set for each group. The wells without addition of the drug were set as controls. The cells in each of the wells were cultured for another 24 h. Then 15 μl of MTT (5 mg/mL) was added to each well. The plates were then incubated at 37 °C for 4 hours, then the supernatants were discarded. 150 μL of DMSO solutions were added to each of the wells and the solutions were mixed thoroughly. Then the plates were incubated at 37 °C for another 10 minutes. Each sample was mixed again and the resulting formazan was measured by its absorbance at 570 nm using a BIO-RAD680 plate reader (Thermo, USA). The experiments were repeated at least 3 times and compared with the control experiment. […]

[2] = tested on: oxidative stress (ROS, MDA, ORAC); test: ROS generation, MDA and ORAC level in chick embryos; assay type: in vivo; settings: glucose-treated chick embryos
Text: It has been reported that hyperglycemia increased the production of ROS. Blocking the generation of ROS could at least partially prevent the possible damage of hyperglycemia. No doubt, oxidative stress will be induced in glucose treated embryos. This conclusion was confirmed by the determination of ROS and malondialdehyde (MDA) levels, and the anti-oxidation ability in chick embryos on EDD 5. […] However, treatment of 5f decreased both levels of ROS and MDA in a dose-dependent manner.
In addition, the ORAC level is indicative of the anti-oxidative capacity.
ROS generation ratios in the eyes of EDD 5 chick embryos were detected with 5 μmol 2′,7′-dichlorofluorescein-diacetate (DCFH-DA, Sigma-Aldrich). The peroxide content was determined by measuring thiobarbituric-acid-reactive substances (TBARS) with a commercial MDA kit (Nanjing Jiancheng Institute of Biotechnology, Nanjing, China). The procedures for the ORAC assay were modified from the previously described method. The automated ORAC assay was carried out on a decay of the fluorescein signal and determined with an excitation/emission filter pair of 485/527 nm in a GENios Lueifcrase microplate reader (TECAN) at 37 °C. Final results were calculated on the basis of the difference in the area under the fluorescein decay curve between the blank and each sample.

[3] = target: T1, ALR1 (Gallus gallus, UniProt Q5ZK84); test: ALR1 activity in glucose-treated embryos (chicken ALR1 ELISA kit); assay type: in vivo; settings: glucose-treated chick embryos, EDD 5, compared with the model group
T1 construct: Embryos on EDD 5 were homogenized with chicken saline and centrifuged; from tissue; host or cells: EDD 5 chick (leghorn) embryo homogenate supernatant
T1 sequence (Q5ZK84 1-327): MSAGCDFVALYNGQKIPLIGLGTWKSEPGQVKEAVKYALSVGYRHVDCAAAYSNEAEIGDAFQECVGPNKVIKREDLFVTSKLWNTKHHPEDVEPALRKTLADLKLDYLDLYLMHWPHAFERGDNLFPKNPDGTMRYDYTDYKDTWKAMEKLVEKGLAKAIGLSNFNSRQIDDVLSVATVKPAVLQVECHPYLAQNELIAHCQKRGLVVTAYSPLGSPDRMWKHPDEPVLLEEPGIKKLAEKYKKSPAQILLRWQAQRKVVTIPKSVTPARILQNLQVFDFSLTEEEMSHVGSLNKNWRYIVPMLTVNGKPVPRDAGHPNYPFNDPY
Procedure: Embryos on EDD 5 were homogenized with chicken saline and centrifuged (4 °C, 10000 rpm, 10 min). The supernatant was used for measuring ALR1 activity in the sample. A chicken ALR1 ELISA kit (Jianglai Biotechnology, China) were used for detection. The concentration of ALR1 in the samples was then determined by comparing the OD of the samples to the standard curve.

[4] = Plasma glucose in chick embryos; assay type: in vivo; settings: glucose-treated chick embryos, EDD 5
Procedure: Figure 4 5f restored neural tube development and marker expression in chick embryos on EDD 5. Glucose concentration (A) and Pax3 protein expression (B) were determined in chick embryos. The plasma glucose concentration was measured using a glucose oxidase-coupled spectrophotometric assay kit. Proteins were detected using the monoclonal antibody anti-Pax3 diluted 1:1000 (DSHB, USA) and visualized using anti-mouse IgG conjugated with horseradish peroxidase (HRP) and Pierce ECL Western Blotting Substrate (Thermo Fisher Scientific, USA) as the substrate of HRP. […] Values were expressed as mean ± SD in each group (n = 10). *P < 0.05, **P < 0.01 vs. control. ^#P < 0.05, ^##P < 0.01 vs. glucose.
The ventricles of embryos were punctured with a 20-gauge needle. At this early embryonic age, 30–40 μL of blood was obtained from the embryos on each EDD 5. The blood containing heparin was centrifuged at 3000 rpm for 15 min. The plasma glucose concentration was measured using a glucose oxidase-coupled spectrophotometric assay kit obtained from Sigma Chemical Co. (St. Louis, MO, USA) according to the manufacturer’s instructions.

CC(=O)N[C@H](COCc1ccccc1)C(=O)NCCCNC(=O)/C(C#N)=C/c1ccc(O)cc1 [Compound 5f, (R,E) - N - (3-(2-acetamido-3-(benzyloxy)propanamido)propyl)-2-cyano-3-(4-hydroxyphenyl)acrylamide]
inhibition rate (growth inhibition) [1]: 19.2%
ORAC level (anti-oxidative capacity) of embryo ([2]; EDD 5): recovered
MDA level in embryo ([2]; EDD 5, dose 1 μM): to a normal state
ROS level in embryo ([2]; EDD 5, dose 1 μM): to a normal state
ALR1 level in embryo [3]: no obvious change
plasma glucose level [4]: did not lower
